Experiments:
[1] = test system: mouse OPCs; test: OPC differentiation into MBP+ oligodendrocytes; assay type: cell-based; settings: 72 h, seven doses 0.01-6.7 μM
Procedure: EpiSC-derived OPCs were seeded onto poly-D-lysine 96-well Viewplate or CellCarrier plates (PerkinElmer) coated with laminin (Sigma, L2020; 10 μgml^−1) using electronic multichannel pipetors. For the primary screen, 30,000 cells were seeded per well in screening medium (DMEM/F12 supplemented with N2 (R&D Systems), B-27 (Life Technologies), neurotrophin 3 (R&D Systems; 10 ng ml^−1), cAMP (Sigma; 50 μM), IGF-1 (R&D Systems; 100 ng ml^−1), noggin (R&D Systems; 100 ngml^−1)) and allowed to attach for 2 h before addition of drug. NIH Clinical Collection I and II drugs were added to assay plates with 0.1 ml pin replicators (Molecular Devices, Genetix; X5051), resulting in a final primary screening concentration of 5 μM. Thyroid-hormone-positive controls and DMSO vehicle controls were included in each assay plate. Cells were incubated under standard conditions (37° C., 5% CO2) for 3 days and fixed with 4% paraformaldehyde (PFA) in phosphate buffered saline (PBS). Fixed plates were permeabilized with 0.1% Triton X-100 and blocked with 10% donkey serum (v/v) in PBS for 2 h. Cells were labelled with MBP antibodies (Abcam, ab7349; 1:100) for 1 h at room temperature (˜22° C.) followed by detection with Alexa Fluorconjugated secondary antibodies (1:500) for 45 min. Nuclei were visualized by DAPI staining (Sigma; 1 μgml^−). All plates for the primary screen were processed and analyzed simultaneously to eliminate variability.
For the 5 μM in vitro screen, stained plates were imaged on the Opera confocal imaging system (PerkinElmer) and a set of 24×10 fields were collected from each well, resulting in an average of 10,000 cells being scored per well. For the dose-response (6.7 μM, 5 μM, 3.3 μM, 1.7 μM, 666 nM, 500 nM, and 333 nM) in vitro assays, plates were imaged on the Operetta High Content Imaging and Analysis system (PerkinElmer) and a set of 14×20 fields captured from each well resulting in an average of 3,300 cells being scored per well. […] Each traced nucleus region was then expanded by 50% and cross-referenced with the mature myelin protein (MBP or PLP1) stain to identify oligodendrocyte nuclei, and from this the percentage of oligodendrocytes was calculated. Processes emanating from oligodendrocyte nuclei were identified using the CSIRO2 analysis module within a custom Acapella script. Maximum mean process length (denoted ‘process length’) and mean process intensity (denoted ‘process intensity’) were generated on a per well basis. For the 5 μM in vitro screen, values were calculated and normalized to 100 for thyroid hormone (positive control)-treated wells and to 0 for DMSO(vehicle)-treated wells, on a per plate basis.

[2] = test system: ERK1/2; test: Western blot of ERK1/2 phosphorylation in OPCs; assay type: cell-based, mouse; settings: for induction of ERK1/2 phosphorylation in OPCs: OPCs treated for 1 h
Procedure: EpiSC-derived OPCs were seeded into poly-Lornithine/laminin coated six-well plates and allowed to attach for 2 h in DMEM/F12 without additional factors. Cells were treated with indicated inhibitors or DMSO for 1 h-SCH772984 (ChemieTek, […]), SB590885 (Tocris, 10 nM), LY294002 (Tocris, 10 μM), and PD0325901 (Stemgent, 1 μM). Cells were then stimulated with drug or FGF2 (R&DSystems; 20 ng ml^−1) for 1 h and then lysed in 200 μL RIPA buffer (0.15 M NaCl, 0.05M Tris, pH=8.0, 1 mM EDTA, 1% Triton X-100, 0.1% SDS, 10% glycerol, HALT protease and phosphatase inhibitor (Thermo Fisher) added just before use) and incubated on ice for 20 min. Lysates were centrifuged at 4° C. and supernatant collected. Protein concentrations were determined by Pierce BCA protein assay kit (Thermo Fisher). Equal amounts of protein were resolved in a reduced manner on NuPAGE 4-12% Bis-Tris gels (Life Technologies) and transferred onto PVDF membranes (Life Technologies). Blots were blocked in either 5% BSA (phosphoprotein) or 5% milk (non phosphoprotein). Primary antibodies were all from the same vendor (Cell Signaling) and included phospho-Erk1/2 (4370S, clone D13.14.4E; 1:2,000), ERK1/2 (9107S, clone 3A7; 1:2,000), phospho-glucocorticoid receptor (4161S; 1:1,000), and glucocorticoid receptor (12041, clone D6H2L; 1:1,000) followed by incubation with HRP-conjugated secondary antibodies and chemiluminescent enhancement by West Pico substrate (Thermo Fisher).

[3] = test system: mouse epiblast stem cell (EpiSC)-derived OPCs; test: Primary in vitro phenotypic screen of OPCs (MBP process length and intensity, high content imaging); assay type: cell-based; settings: 5 μM, 72 h, 727 drugs
Procedure: For the primary screen, OPCs were treated with vehicle alone (0.05% (v/v)DMSO) as a negative control, thyroid hormone (a known OPC differentiation inducer) as a positive control, or drug dissolved in DMSO at a concentration of 5 μM. After 72 h, cells were fixed and labeled with antibodies to myelin basic protein (MBP) and the length and intensity of MBP labeled oligodendrocyte processes measured (FIG. 1A). These features were reliable indicators of alteration in cellular phenotype, as indicated by consistency and high signal to background ratio of positive and vehicle controls across all screening plates (FIG. 5D-G). […] On the basis of this analysis, we identified the 22 drugs that enhanced oligodendrocyte formation greater than five standard deviations above DMSO treatment and outperformed thyroid hormone in the measured parameters (FIG. 1B).
EpiSC-derived OPCs were seeded onto poly-D-lysine 96-well Viewplate or CellCarrier plates (PerkinElmer) coated with laminin (Sigma, L2020; 10 μgml^−1) using electronic multichannel pipetors. […] All plates for the primary screen were processed and analyzed simultaneously to eliminate variability.
For the 5 μM in vitro screen, stained plates were imaged on the Opera confocal imaging system (PerkinElmer) and a set of 24×10 fields were collected from each well, resulting in an average of 10,000 cells being scored per well. […]

[4] = test system: MOG35-55 EAE mouse model; test: MOG35-55 chronic progressive EAE model
Procedure: Immunohistochemistry was performed as previously described. In short, tissue sections or whole slices were washed three times in PBS, blocked in PBS containing Triton X-100 (0.1%) and normal donkey serum (NDS, 2% for sections and 10% for cerebellar slices) and incubated with primary antibody overnight. For MBP immunohistochemistry, the primary antibody solution consisted of 2% NDS, 2% bovine serum albumin, and 0.1% saponin. For all other antibodies, the primary antibody solution consisted of 2% NDS and 0.1% Triton X-100. Primary antibodies used included rat anti-MBP (Abcam, ab7349; 1:100), mouse anti-APC CC1 clone (Millipore, MABC200; 1:500), and rabbit anti-IBA1 (Wako Chemicals, 019-19741; 1:1,000). The tissue was then washed in PBS and incubated in secondary antibodies for […]. Secondary detection was performed with Alexa Fluor-conjugated secondary antibodies (1:500) for 1 h. Luxol fast blue staining was performed as previously described.
Samples were processed as previously described. In short, samples were osmicated, stained en bloc with uranyl acetate, and embedded in EMbed 812, an Epon-812 substitute (EMS). Sections (1 μm) were cut and stained with toluidine blue and visualized on a light microscope (Leica DM5500B). Additional thin sections were cut, carbon coated and imaged either on a JEOL JEM-1200-EX electron microscope or a T12 electron microscope (FEI).
EAE was induced by immunizing 10-week-old C57BL/6 female mice with […] injection of […] complete Freund's adjuvant emulsion (Hooke Laboratories). One hour after immunization, mice were given 100 ng of pertussis toxin by 100 μl intraperitoneal injection. A second dose of pertussis toxin was administered the next day. EAE onset was monitored daily and scored using a clinical scale where 0 represented no abnormality; 1, limp tail; 2, limp tail and hind limb weakness; 3, hind limb paralysis; 4, hind limb paralysis and forelimb weakness; and 5, moribund. […] Once mice reached peak of disease ˜day 15; clinical score=3) they were randomized into treatment groups, and drug or vehicle (DMSO in saline) was administered intraperitoneally daily for 10 days (n=12-16 mice per group). […] Experimenters were blinded to the identity of the treatments and animals were scored daily. Cumulative disease scores for each animal were calculated during the treatment period, and a two-tailed t-test compared drug—with vehicle-treated groups. The extent of recovery for each animal was calculated as the difference between the peak disease score and the score at the end of each experiment, and a two-tailed t-test was used to compare each treatment with vehicle. External validation of MOG35-55 EAE experiments (n=12 mice per group) was performed at Hooke Laboratories with experimenters blinded to the identity of the substances.

| Structure (SMILES) | induction of ERK1/2 phosphorylation in OPCs [2] | hit status / activity in the primary screen (MBP process length and intensity) [3] | also measured |
| --- | --- | --- | --- |
| C[C@@H](c1ncncc1F)[C@](O)(Cn1cncn1)c1ccc(F)cc1F [voriconazole] | failed to induce changes in ERK1/2 phosphorylation |  | differentiation of OPCs into oligodendrocytes [1]: did not promote the differentiation of OPCs into oligodendrocytes |
| COc1cc2c(cc1OC)C(=O)C(CC1CCN(Cc3ccccc3)CC1)C2 (centres unmarked) [Donepezil] |  | identified in the primary screen |  |
| CN1[C@@H]2CC[C@H]1C[C@@H](OC(c1ccccc1)c1ccccc1)C2 [benztropine] | did not induce ERK1/2 phosphorylation | one of the top 22 drugs | areas of myelin disruption in the white matter (luxol fast blue, MBP immunohistochemistry) ([4]; cervical spinal cords): decrease in areas of myelin disruption in the white matter; functional improvement (disease score) ([4]; daily i.p. for 10 days from peak of disease, miconazole 10 mg/kg, clobetasol 2 mg/kg, benztropine 10 mg/kg): functional improvement, but to a lesser extent than miconazole and clobetasol |
| O=C(NOC[C@H](O)CO)c1ccc(F)c(F)c1Nc1ccc(I)cc1F [PD0325901] |  |  | block of miconazole-induced ERK1/2 phosphorylation ([2]; OPCs, inhibitor 1 μM for 1 h, then miconazole): blocked the ability of miconazole to induce ERK1/2 phosphorylation |

From patent publication US10653691B2, “Method of promoting remyelination” (Case Western Reserve University, priority 2013, dated 2020)
